We go through four molecules from ChEMBL document CHEMBL1139539, “Structure-based characterization and optimization of novel hydrophobic binding interactions in a series of pyrrolidine influenza neuraminidase inhibitors” (J Med Chem, 2005).

The assay deals with Neuraminidase (Influenza B virus (strain B/Lee/1940), UniProt P03474). The assay can be described thus: Effective concentration against neuraminidase of Influenza B virus B/Memphis strain.
Sequence of Neuraminidase (P03474 whole entry): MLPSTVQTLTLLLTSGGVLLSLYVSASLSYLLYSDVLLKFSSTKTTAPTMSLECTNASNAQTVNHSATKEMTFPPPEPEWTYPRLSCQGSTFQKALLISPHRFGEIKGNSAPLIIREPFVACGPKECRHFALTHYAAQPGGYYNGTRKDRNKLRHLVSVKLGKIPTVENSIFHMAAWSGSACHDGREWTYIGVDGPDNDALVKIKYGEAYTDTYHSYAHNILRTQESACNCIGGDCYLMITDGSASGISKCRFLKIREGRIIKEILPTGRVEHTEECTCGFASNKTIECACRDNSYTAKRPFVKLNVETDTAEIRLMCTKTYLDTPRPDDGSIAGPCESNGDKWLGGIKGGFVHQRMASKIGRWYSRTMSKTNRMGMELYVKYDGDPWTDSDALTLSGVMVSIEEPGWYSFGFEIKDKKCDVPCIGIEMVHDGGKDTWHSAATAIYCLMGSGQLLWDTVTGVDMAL
One may read the EC50 as the midpoint of the concentration-response curve. With `CC(=O)N[C@@H](CC(C)C)[C@@H]1N[C@@H](C(=O)O)C[C@H]1c1c[nH]cn1`, a half-maximal effect (EC50) was put at 11 µM. This lies in the double-digit micromolar range.

In the case of `C=C[C@@H]1C[C@H](C(=O)O)N[C@H]1[C@H](CC(C)C)NC(C)=O`, the 50% effective concentration (EC50) came to 23 µM.

For `CC(=O)N[C@@H](CC(C)C)[C@@H]1N[C@@H](C(=O)O)C[C@H]1c1nccs1`, a half-maximal effect (EC50) was put at 6 µM.

In turn, `CC(=O)N[C@@H](CC(C)C)[C@@H]1N[C@@H](C(=O)O)C[C@H]1C=C(F)F` registered a 50% effective concentration (EC50) of 9 µM.
